Reference: ChEMBL document CHEMBL1201862, “PubChem BioAssay data set” (2004)
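Growth conditions: 96-well plates. Treatment: test compound, 48 hours, 5 concentrations. Analysis: linear interpolation between bracketing concentrations; unreached endpoints set to highest concentration. The concentration for 50% growth inhibition is given as GI50.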 Calls of active or inactive are those of the source. No stated cut-off is given here; in the data, active = GI50 up to about 1.1 µM and inactive = higher.

Experiments:
Assay in all cases: NCI-60 cell line screen, 48 h
SNB-75 = system: SNB-75
SK-OV-3 = system: SK-OV-3
SF-268 = system: SF-268
MDA-MB-435 = system: MDA-MB-435
UO-31 = system: UO-31
OVCAR-8 = system: OVCAR-8
UACC-62 = system: UACC-62
NCI-H522 = system: NCI-H522
NCI/ADR-RES = system: NCI/ADR-RES
KM12 = system: KM12
NCI-H23 = system: NCI-H23
OVCAR-3 = system: OVCAR-3
BT-549 = system: BT-549
SK-MEL-5 = system: SK-MEL-5
RXF 393 = system: RXF 393
MDA-MB-231 = system: MDA-MB-231
ACHN = system: ACHN
A498 = system: A498
SW-620 = system: SW-620
OVCAR-5 = system: OVCAR-5
DU-145 = system: DU-145
MCF7 = system: MCF7
SN12C = system: SN12C
MDA-N = system: MDA-N
TK-10 = system: TK-10
HCC 2998 = system: HCC 2998
HOP-92 = system: HOP-92
SR = system: SR
SK-MEL-28 = system: SK-MEL-28
SK-MEL-2 = system: SK-MEL-2
CCRF-CEM = system: CCRF-CEM
SNB-19 = system: SNB-19
Hs-578T = system: Hs-578T
786-0 = system: 786-0
RPMI-8226 = system: RPMI-8226
COLO 205 = system: COLO 205
PC-3 = system: PC-3
Malme-3M = system: Malme-3M
SF-295 = system: SF-295
A549 = system: A549
IGROV-1 = system: IGROV-1
HCT-15 = system: HCT-15
SF-539 = system: SF-539
MOLT-4 = system: MOLT-4
UACC-257 = system: UACC-257
LOX IMVI = system: LOX IMVI
T47D = system: T47D
U-251 = system: U-251
K562 = system: K562
HT-29 = system: HT-29
NCI-H460 = system: NCI-H460
CAKI-1 = system: CAKI-1
EKVX = system: EKVX
NCI-H226 = system: NCI-H226
HL-60 = system: HL-60
HCT-116 = system: HCT-116
M14 = system: M14
HOP-62 = system: HOP-62
OVCAR-4 = system: OVCAR-4
LXFL 529 = system: LXFL 529
M19-MEL = system: M19-MEL
DLD-1 = system: DLD-1

SMILES: O=Cc1cc(O)ccc1Br
- GI50 (SNB-75): 14.4 µM (inactive)
- GI50 (SK-OV-3): 34.7 µM (inactive)
- GI50 (SF-268): 9.93 µM (inactive)
- GI50 (MDA-MB-435): 2.5 µM (inactive)
- GI50 (UO-31): 19.5 µM (inactive)
- GI50 (OVCAR-8): 5.05 µM (inactive)
- GI50 (UACC-62): 6.9 µM (inactive)
- GI50 (NCI-H522): 38.4 µM (inactive)
- GI50 (NCI/ADR-RES): 12.1 µM (inactive)
- GI50 (KM12): 23.5 µM (inactive)
- GI50 (NCI-H23): 21.7 µM (inactive)
- GI50 (OVCAR-3): 6.3 µM (inactive)
- GI50 (BT-549): 11.6 µM (inactive)
- GI50 (SK-MEL-5): 17.3 µM (inactive)
- GI50 (RXF 393): 27.4 µM (inactive)
- GI50 (MDA-MB-231): 36.1 µM (inactive)
- GI50 (ACHN): 19.8 µM (inactive)
- GI50 (A498): > 100 µM (inactive)
- GI50 (SW-620): 4.78 µM (inactive)
- GI50 (OVCAR-5): 32.1 µM (inactive)
- GI50 (DU-145): 44.7 µM (inactive)
- GI50 (MCF7): 4.41 µM (inactive)
- GI50 (SN12C): 19.8 µM (inactive)
- GI50 (MDA-N): 3.1 µM (inactive)
- GI50 (TK-10): 11.3 µM (inactive)
- GI50 (HCC 2998): 11.8 µM (inactive)
- GI50 (HOP-92): 19 µM (inactive)
- GI50 (SR): 2.63 µM (inactive)
- GI50 (SK-MEL-28): 15 µM (inactive)
- GI50 (SK-MEL-2): 44.4 µM (inactive)
- GI50 (CCRF-CEM): 3.08 µM (inactive)
- GI50 (SNB-19): 12.5 µM (inactive)
- GI50 (Hs-578T): 9.31 µM (inactive)
- GI50 (786-0): 22.6 µM (inactive)
- GI50 (RPMI-8226): 2.81 µM (inactive)
- GI50 (COLO 205): 41.7 µM (inactive)
- GI50 (PC-3): 13.2 µM (inactive)
- GI50 (Malme-3M): 18.5 µM (inactive)
- GI50 (SF-295): 7 µM (inactive)
- GI50 (A549): > 100 µM (inactive)
- GI50 (IGROV-1): 28.1 µM (inactive)
- GI50 (HCT-15): 3.15 µM
- GI50 (SF-539): 4.3 µM (inactive)
- GI50 (MOLT-4): 4.15 µM (inactive)
- GI50 (UACC-257): 41.5 µM (inactive)
- GI50 (LOX IMVI): 5.46 µM (inactive)
- GI50 (T47D): 42.1 µM (inactive)
- GI50 (U-251): 3.74 µM (inactive)
- GI50 (K562): 2.86 µM (inactive)
- GI50 (HT-29): 18.2 µM (inactive)
- GI50 (NCI-H460): 19.7 µM (inactive)
- GI50 (CAKI-1): 20 µM (inactive)
- GI50 (EKVX): 65.6 µM (inactive)
- GI50 (NCI-H226): 28.8 µM (inactive)
- GI50 (HL-60): 1.88 µM (inactive)
- GI50 (HCT-116): 3.31 µM (inactive)
- GI50 (M14): 5.45 µM (inactive)
- GI50 (HOP-62): 9.71 µM (inactive)
- GI50 (OVCAR-4): 15 µM (inactive)

SMILES: CCOC(=O)/C(C#N)=C1/Sc2c(ncn(/N=C/c3ccc(OC)cc3)c2=O)N1c1ccccc1
- GI50 (SK-OV-3): 40.4 µM (inactive)
- GI50 (SF-268): 14.8 µM (inactive)
- GI50 (UO-31): > 100 µM (inactive)
- GI50 (OVCAR-8): 40.6 µM (inactive)
- GI50 (UACC-62): 31.1 µM (inactive)
- GI50 (NCI-H522): 25.4 µM (inactive)
- GI50 (KM12): > 100 µM (inactive)
- GI50 (NCI-H23): 54.8 µM (inactive)
- GI50 (OVCAR-3): 41.4 µM (inactive)
- GI50 (SK-MEL-5): > 100 µM (inactive)
- GI50 (ACHN): > 100 µM (inactive)
- GI50 (SW-620): > 100 µM (inactive)
- GI50 (TK-10): 50.2 µM (inactive)
- GI50 (HCC 2998): > 100 µM (inactive)
- GI50 (HOP-92): 13.9 µM (inactive)
- GI50 (SR): > 100 µM (inactive)
- GI50 (SK-MEL-28): 28.7 µM (inactive)
- GI50 (LXFL 529): 41.1 µM (inactive)
- GI50 (CCRF-CEM): > 100 µM (inactive)
- GI50 (M19-MEL): 74 µM (inactive)
- GI50 (DLD-1): > 100 µM (inactive)
- GI50 (SNB-19): 33.5 µM (inactive)
- GI50 (RPMI-8226): > 100 µM (inactive)
- GI50 (COLO 205): > 100 µM (inactive)
- GI50 (SF-295): 19.1 µM (inactive)
- GI50 (A549): 67.8 µM (inactive)
- GI50 (IGROV-1): 56.2 µM (inactive)
- GI50 (SF-539): 14.8 µM (inactive)
- GI50 (MOLT-4): > 100 µM (inactive)
- GI50 (UACC-257): 29.2 µM (inactive)
- GI50 (U-251): 37.4 µM (inactive)
- GI50 (K562): 62.5 µM (inactive)
- GI50 (HT-29): 70.6 µM (inactive)
- GI50 (NCI-H460): 28.9 µM (inactive)
- GI50 (NCI-H226): 36.1 µM (inactive)
- GI50 (HL-60): > 100 µM (inactive)
- GI50 (HCT-116): > 100 µM (inactive)
- GI50 (HOP-62): 22.2 µM (inactive)
